Measured values as given in US11566007B2, “Ras inhibitors” (Revolution Medicines, Inc., priority 2019, dated 2023).
Where two headings read alike, the source gives them in different places.

Assays:
KRAS G12S = KRAS G12S (Homo sapiens (Human), UniProt P01116+P62937, G12S); assay: Ras-Raf (BRAF RBD) disruption / FRET / MOA assay, KRAS G12S; assay type: biochemical; conditions: Ras-Raf disruption/FRET/MOA assay; class symbols; read-out: KRAS G12S FRET data IC50
Method in brief: (§1)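 Ternary complex formation (Ras–compound–cyclophilin A) displacing BRAF RBD, monitored by TR-FRET. Three hours at 25° C with compound (top 30 μM final), then 1.5 h with the labelled antibodies. Lower ratio than DMSO indicates disruption; IC50 reported.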

KRAS G12D = KRAS G12D (Homo sapiens (Human), UniProt P01116+P62937, G12D); assay: Ras-Raf (BRAF RBD) disruption / FRET / MOA assay, KRAS G12D; assay type: biochemical; conditions: Ras-Raf disruption/FRET/MOA assay; class symbols; read-out: KRAS G12D FRET data IC50
Method in brief: as §1

NCI-H358 (K-Ras G12C) = assay: CellTiter-Glo cell viability assay, NCI-H358; assay type: cell-based, human; conditions: NCI-H358, 5-day treatment, class symbols, read-out: Additional H358 Cell Viability assay data (K-Ras G12C, IC50)
Method in brief: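 Viability of K-Ras mutant lines is measured by ATP luminescence after five days of compound treatment. Percent of DMSO control is calculated and dose-response data are fitted with a four-parameter logistic equation.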

[1] = system: NCI-H358 cells (K-Ras G12C); assay: Potency assay: pERK in NCI-H358 cells; assay type: cell-based, human; conditions: H358 KRAS G12C, read-out: pERK EC50
Method in brief: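 4 h cpd, 37 °C; 10-pt 3-fold series, 10 mM DMSO top stock, duplicates. Readout pERK: AlphaLISA SureFire Ultra or In-Cell Western (IR-800CW secondary, DRAQ5 DNA stain). IC50, 4-PL fit vs log conc.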

KRAS G12S, sequence (P01116-2 other isoform, or with tags, fused parts or gaps G12S): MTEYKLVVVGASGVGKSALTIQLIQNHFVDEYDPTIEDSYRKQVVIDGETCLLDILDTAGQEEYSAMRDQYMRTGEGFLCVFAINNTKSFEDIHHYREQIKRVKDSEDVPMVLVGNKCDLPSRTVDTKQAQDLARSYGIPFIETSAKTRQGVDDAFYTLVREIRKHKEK
KRAS G12S, sequence (P62937 whole entry): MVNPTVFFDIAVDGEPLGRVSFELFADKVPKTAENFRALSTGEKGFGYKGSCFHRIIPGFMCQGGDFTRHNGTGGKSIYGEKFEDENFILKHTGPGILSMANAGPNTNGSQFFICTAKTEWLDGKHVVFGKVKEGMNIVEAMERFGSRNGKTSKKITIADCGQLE
KRAS G12D, sequence (P01116-2 other isoform, or with tags, fused parts or gaps G12D): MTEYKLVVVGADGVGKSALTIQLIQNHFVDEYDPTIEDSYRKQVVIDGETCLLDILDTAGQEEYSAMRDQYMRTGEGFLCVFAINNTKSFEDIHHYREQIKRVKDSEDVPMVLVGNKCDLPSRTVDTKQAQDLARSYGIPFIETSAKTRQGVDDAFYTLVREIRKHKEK
KRAS G12D, sequence (P62937 whole entry): as the sequence (P62937 whole entry) above

Row | Compound | IC50 (KRAS G12S) [nM] | IC50 (KRAS G12D) [nM] | IC50 (NCI-H358 (K-Ras G12C)) [nM] | EC50 [1] [nM] | IC50 (NCI-H358 (K-Ras G12C); Homo sapiens, NCI-H358, 120 h) [nM] | EC50 ([1]; Homo sapiens, NCI-H358) [nM]
1 | C=CC(=O)N1CCC(F)(C(=O)N(C)[C@H](C(=O)N[C@H]2Cc3cccc(c3)-c3ccc4c(c3)c(c(-c3cccnc3[C@H](C)OC)n4CC)CC(C)(C)COC(=O)[C@@H]3CCCN(N3)C2=O)C(C)C)CC1 (atropisomer, axis not shown) [Example A519] | 100 to 1000 | 1000 to 10000 | < 10 | < 5000 | – | –
2 | C=CS(=O)(=O)N1CC[C@H](C(=O)N(C)[C@H](C(=O)N[C@H]2Cc3cc(O)cc(c3)-c3ccc4c(c3)c(c(-c3cccnc3COC)n4CC)CC(C)(C)COC(=O)[C@@H]3CCCN(N3)C2=O)C(C)C)C1 [Example A69] | – | – | – | – | 10 to 100 | < 5000
3 | C=CC(=O)N1CC(C(=O)N(C)[C@H](C(=O)N[C@H]2Cc3cc(O)cc(c3)-c3ccc4c(c3)c(c(-c3cccnc3COC)n4CC)CC(C)(C)COC(=O)[C@@H]3CCCN(N3)C2=O)C(C)C)C1 [Example A70] | – | – | – | – | 10 to 100 | < 5000
4 | CCn1c(-c2cccnc2COC)c2c3cc(ccc31)-c1cc(O)cc(c1)C[C@H](NC(=O)[C@H](C(C)C)N(C)C(=O)C1CN(C(=O)/C=C/CN(C)C)C1)C(=O)N1CCC[C@H](N1)C(=O)OCC(C)(C)C2 [Example A71, (2S)-2-(1-{1-[(2E)-4-(dimethylamino)but-2-enoyl]azetidin-3-yl}-N-methylformamido)-N-[(8S,14S)-22-ethyl-4-hydroxy-21-[2-(methoxymethyl)pyridin-3-yl]-18,18-dimethyl-9,15-dioxo-16-oxa-10,22,28-triazapentacyclo[18.5.2.1^2,^6.1^10,^14.0^23,^27]nonacosa-1(26),2,4,6(29),20,23(27),24-heptaen-8-yl]-3-methylbutanamide] | – | – | – | – | 100 to 1000 | < 5000
5 | C=CC(=O)N1CC[C@H](C(=O)N(C)[C@H](C(=O)N[C@H]2Cc3cc(O)cc(c3)-c3ccc4c(c3)c(c(-c3cncc(CN(C)C)c3)n4CC)CC(C)(C)COC(=O)[C@@H]3CCCN(N3)C2=O)C(C)C)C1 [Example A73] | – | – | – | – | 10 to 100 | < 5000
6 | C=CC(=O)N1CC[C@H](C(=O)N(C)[C@H](C(=O)N[C@H]2Cc3cc(O)cc(c3)-c3ccc4c(c3)c(c(-c3cnccc3C)n4CC)CC(C)(C)COC(=O)[C@@H]3CCCN(N3)C2=O)C(C)C)C1 [Example A77] | – | – | – | – | 10 to 100 | < 5000
7 | CCn1c(-c2ccccc2COC)c2c3cc(ccc31)-c1cc(O)cc(c1)C[C@H](NC(=O)[C@H](C(C)C)N(C)C(=O)[C@H]1CCN(C(=O)/C=C/CN(C)C)C1)C(=O)N1CCC[C@H](N1)C(=O)OCC(C)(C)C2 [Example A79] | – | – | – | – | 10 to 100 | < 5000
8 | C=CC(=O)N1CC[C@H](C(=O)N(C)[C@H](C(=O)N[C@H]2Cc3cc(O)cc(c3)-c3ccc4c(c3)c(c(-c3c(CCOC)cccc3OC)n4CC)CC(C)(C)COC(=O)[C@@H]3CCCN(N3)C2=O)C(C)C)C1 [Example A80] | – | – | – | – | 100 to 1000 | < 5000
9 | C=CC(=O)N1CC[C@H](C(=O)N(C)[C@H](C(=O)N[C@H]2Cc3cc(O)cc(c3)-c3ccc4c(c3)c(c(-c3cc(F)cnc3COC)n4CC)CC(C)(C)COC(=O)[C@@H]3CCCN(N3)C2=O)C(C)C)C1 [Example A82] | – | – | – | – | 10 to 100 | < 5000
10 | C=CC(=O)N1CC[C@H](C(=O)N(C)[C@H](C(=O)N[C@H]2Cc3cc(O)cc(c3)-c3ccc4c(c3)c(c(-c3cncc(COC)c3)n4CC)CC(C)(C)COC(=O)[C@@H]3CCCN(N3)C2=O)C(C)C)C1 [Example A83] | – | – | – | – | 10 to 100 | < 5000
11 | C=CC(=O)N1CC[C@H](C(=O)N(C)[C@H](C(=O)N[C@H]2Cc3cc(O)cc(c3)-c3ccc4c(c3)c(c(-c3ncccc3COC)n4CC)CC(C)(C)COC(=O)[C@@H]3CCCN(N3)C2=O)C(C)C)C1 [Example A84] | – | – | – | – | 100 to 1000 | < 5000
12 | C=CC(=O)N1CC[C@H](C(=O)N(C)[C@H](C(=O)N[C@H]2Cc3cc(O)cc(c3)-c3ccc4c(c3)c(c(-c3nccnc3COC)n4CC)CC(C)(C)COC(=O)[C@@H]3CCCN(N3)C2=O)C(C)C)C1 [Example A85] | – | – | – | – | 100 to 1000 | < 5000
13 | C=CC(=O)N1CC[C@H](C(=O)N(C)[C@H](C(=O)N[C@H]2Cc3cc(O)cc(c3)-c3ccc4c(c3)c(c(-c3ccncc3)n4C(C)(C)C#N)CC(C)(C)COC(=O)[C@@H]3CCCN(N3)C2=O)C(C)C)C1 [Example A86] | – | – | – | – | 10 to 100 | < 5000
14 | CCn1c(-c2cnccc2COC)c2c3cc(ccc31)-c1cc(O)cc(c1)C[C@H](NC(=O)[C@H](C(C)C)N(C)C(=O)[C@H]1CCN(C(=O)/C=C/CN(C)C)C1)C(=O)N1CCC[C@H](N1)C(=O)OCC(C)(C)C2 [Example A87] | – | – | – | – | 10 to 100 | < 5000
15 | C=CC(=O)N1CC[C@H](C(=O)N(C)[C@H](C(=O)N[C@H]2Cc3cc(O)cc(c3)-c3ccc4c(c3)c(c(-c3ccc(N5CCN(C)CC5)nc3)n4CC)CC(C)(C)COC(=O)[C@@H]3CCCN(N3)C2=O)C(C)C)C1 [Example A89, (2S)-N-[(8S,14S)-22-ethyl-4-hydroxy-18,18-dimethyl-21-[6-(4-methylpiperazin-1-yl)pyridin-3-yl]-9,15-dioxo-16-oxa-10,22,28-triazapentacyclo[18.5.2.1^2,^6.1^10,^14.0^23,^27]nonacosa-1(26),2,4,6(29),20,23(27),24-heptaen-8-yl]-3-methyl-2-{N-methyl-1-[(3S)-1-(prop-2-enoyl)pyrrolidin-3-yl]formamido}butanamide] | – | – | – | – | 10 to 100 | < 5000
16 | C=CC(=O)N1CC[C@H](C(=O)N(C)[C@H](C(=O)N[C@H]2Cc3cc(O)cc(c3)-c3ccc4c(c3)c(c(-c3cnccc3COC)n4CC)CC(C)(C)COC(=O)[C@@H]3CCCN(N3)C2=O)C(C)C)C1 [Example A91] | – | – | – | – | < 10 | < 5000
17 | C=CC(=O)N1CC[C@H](C(=O)N(C)[C@H](C(=O)N[C@H]2Cc3cc(O)cc(c3)-c3ccc4c(c3)c(c(-c3cccnc3CN(C)C)n4CC)CC(C)(C)COC(=O)[C@@H]3CCCN(N3)C2=O)C(C)C)C1 [Example A92] | – | – | – | – | 100 to 1000 | < 5000
18 | C=CC(=O)N1CC[C@H](C(=O)N(C)[C@H](C(=O)N[C@H]2Cc3cc(O)cc(c3)-c3ccc4c(c3)c(c(-c3cccnc3COC)n4CC#N)CC(C)(C)COC(=O)[C@@H]3CCCN(N3)C2=O)C(C)C)C1 [Example A93] | – | – | – | – | 10 to 100 | < 5000
19 | C=CC(=O)N1CC[C@H](C(=O)N(C)[C@H](C(=O)N[C@H]2Cc3nc(cs3)-c3ccc4c(c3)c(c(-c3cccnc3COC)n4CC)CC(C)(C)COC(=O)[C@@H]3CCCN(N3)C2=O)C(C)C)C1 [Example A94] | – | – | – | – | 10 to 100 | < 5000
20 | CCn1c(-c2cccnc2COC)c2c3cc(ccc31)-c1cc(O)cc(c1)C[C@H](NC(=O)[C@H](C(C)C)N(C)C(=O)[C@H]1CCN(C(=O)C#CCN3CCOCC3)C1)C(=O)N1CCC[C@H](N1)C(=O)OCC(C)(C)C2 [Example A95, (2S)-N-[(8S,14S)-22-ethyl-4-hydroxy-21-[2-(methoxymethyl)pyridin-3-yl]-18,18-dimethyl-9,15-dioxo-16-oxa-10,22,28-triazapentacyclo[18.5.2.1^2,^6.1^10,^14.0^23,^27]nonacosa-1(26),2,4,6(29),20,23(27),24-heptaen-8-yl]-3-methyl-2-{N-methyl-1-[(3S)-1-[4-(morpholin-4-yl)but-2-ynoyl]pyrrolidin-3-yl]formamido}butanamide] | – | – | – | – | 10 to 100 | < 5000
21 | CCn1c(-c2cccnc2COC)c2c3cc(ccc31)-c1cc(O)cc(c1)C[C@H](NC(=O)[C@H](C(C)C)N(C)C(=O)[C@H]1CCN(C(=O)C#CCN(C)C)C1)C(=O)N1CCC[C@H](N1)C(=O)OCC(C)(C)C2 [Example A96] | – | – | – | – | < 10 | < 5000
22 | CCn1c(-c2cccnc2COC)c2c3cc(ccc31)-c1cc(O)cc(c1)C[C@H](NC(=O)[C@H](C(C)C)N(C)C(=O)C1CN(C(=O)C#CCN(C)C)C1)C(=O)N1CCC[C@H](N1)C(=O)OCC(C)(C)C2 [Example A97] | – | – | – | – | 10 to 100 | < 5000
23 | C=CC(=O)N1CC[C@H](C(=O)N(C)[C@H](C(=O)N[C@H]2Cc3cc(O)cc(c3)-c3ccc4c(c3)c(c(-c3ccc(C5CCN(C)CC5)nc3)n4CC)CC(C)(C)COC(=O)[C@@H]3CCCN(N3)C2=O)C(C)C)C1 [Example A98] | – | – | – | – | 10 to 100 | < 5000
24 | C=CC(=O)N1CC[C@H](C(=O)N(C)[C@H](C(=O)N[C@H]2Cc3cc(O)cc(c3)-c3ccc4c(c3)c(c(-c3cnn(C)c3)n4CC)CC(C)(C)COC(=O)[C@@H]3CCCN(N3)C2=O)C(C)C)C1 [Example A99] | – | – | – | – | 10 to 100 | < 5000
25 | CCn1c(-c2cccnc2[C@H](C)OC)c2c3cc(ccc31)-c1cc(O)cc(c1)C[C@H](NC(=O)[C@H](C(C)C)N(C)C(=O)c1nc(NC(=O)/C=C/CN(C)C)cs1)C(=O)N1CCC[C@H](N1)C(=O)OCC(C)(C)C2 [Example A258] | 1000 to 10000 | – | 100 to 1000 | < 5000 | – | –
